Measured values taken from US8809529B2, “Imidazo[1,2-α]pyrazine derivatives” (Promega Corporation, priority 2010, dated 2014).

Tested on: HEK293 cells
Settings: human, 24 h

Q: With O=c1c(Cc2ccc(O)cc2)nc2c(Cc3ccccc3)[nH]c(-c3ccccc3)cn1-2 [PBI-3840, 8-benzyl-2-(4-hydroxybenzyl)-6-phenylimidazo[1,2-a]pyrazin-3(7H)-one] as the compound, how does the “Viability (normalized to vehicle (DMSO) control) (%)” value read?
A: The value was 60%.
